These results are taken from patent publication US20260284005A1, “INHIBITING MITOGEN-ACTIVATED PROTEIN (MAP)/ERK KINASE (MEK)1 AND MEK2 AND RELATED METHODS OF TREATMENT” (priority 2023, published 2026).

Data set [1] concerns Calu-6 cells. Nature of the data set: 3D-TGA. The settings on record: Homo sapiens; Calu-6, LUN, KRAS Q61K; read-out: IC50 in 3D-TGA, CDK-4-6 inhibitor alone. It counts as cell-based, human. The procedure: (§1) Cells were seeded in 3D cultures in a black-walled, clear-bottom, non-tissue culture treated, 384-well plate (3000 cells per well) using a 1:1 mixture of BME and a custom media and grown in a humidified incubator with 5% CO2 and 5% O2, which approximates capillary levels for each gas, at 37° C. […] Cells were assessed for cell proliferation using EdU cell proliferation staining. […] Cells were permeabilized with 30 μL of filtered 0.5% Triton X-100 in PBS for 20 minutes at room temperature. Samples were washed twice gently with PBS. Cells were stained utilizing click-iT chemistry by adding 20 μL of staining cocktail containing 2 mM copper sulfate, 8 μM sulfo-Cy5-azide, and 20 mg/ml ascorbic acid in PBS and incubated 30-60 minutes at room temperature in dark. […] Plates were imaged with the Molecular Devices Pico ImageXpress. Images were segmented and percentage of cells with EdU incorporation was quantified to calculate antiproliferative effects of the drugs.
(§2) Five (5)-ethynyl-2′-deoxyuridine (EdU) data was represented as percentage EdU positive cells quantified by high content imaging from the Molecular Devices ImageXpress® Pico.

For data set [2], the system named is A-427 cells. Nature of the data set: 3D-TGA. It counts as cell-based, human. The settings on record: A-427, LUN, KRAS G12D. The method, then: as §1, §2
Data set [3] concerns A549 cells. The data set is described as follows: 3D-TGA. The settings on record: Homo sapiens; A549, LUN, KRAS G12S; read-out: IC50 in 3D-TGA, CDK-4-6 inhibitor alone. It counts as cell-based, human. The method, then:
as §1, §2

Data set [4] concerns HT-29 cells. The data set is described as follows: 3D-TGA. The class given is cell-based, human. The settings on record: Homo sapiens; HT-29, COL, BRAF V600E; read-out: IC50 in 3D-TGA, CDK-4-6 inhibitor alone. The procedure:
as §1, §2

For data set [5], the system named is MIA PaCa-2 cells. Nature of the data set: 3D-TGA. It counts as cell-based, human.
In data set [6] the test system is NCI-H820 cells. Nature of the data set: 3D-TGA. The settings on record: Homo sapiens. It counts as cell-based.
Data set [7] concerns SK-CO-1 cells. Nature of the data set: 3D-TGA. The class given is cell-based. The settings on record: Homo sapiens.
Data set [8] deals with NCI-H358 cells. The data set is described as follows: 3D-TGA. It counts as cell-based, human.
The test system of data set [9] is NCI-H1650 cells. Nature of the data set: 3D-TGA. The class given is cell-based. The settings on record: Homo sapiens.
Data set [10] concerns NCI-H1792 cells. The data set is described as follows: 3D-TGA. The class given is cell-based, human.
Data set [11] concerns NCI-H1975 cells. Nature of the data set: 3D-TGA. The class given is cell-based. The settings on record: Homo sapiens.
The test system of data set [12] is NCI-H508 cells. Nature of the data set: 3D-TGA. It counts as cell-based. The settings on record: Homo sapiens.
The test system of data set [13] is NCI-H2172 cells. Nature of the data set: 3D-TGA. The class given is cell-based. The settings on record: Homo sapiens.
Data set [14] relates to LS411N cells. Nature of the data set: 3D-TGA. It counts as cell-based. The settings on record: Homo sapiens, LS-411N.
For data set [15] the following is noted: in vivo.
The conditions of data set [16]: human, in vivo; cited from earlier work.
Data set [17] has as its system HPAF-II cells. Nature of the data set: 3D-TGA. The class given is cell-based, human. The settings on record: read-out: IC50 in 3D-TGA Ifebemetinib, PAN, KRAS G12D, agent alone. The procedure:
as §1, §2

The subject of data set [18] is HCC-44 cells. Nature of the data set: 3D-TGA. It counts as cell-based, human. The settings on record: read-out: IC50 in 3D-TGA Ifebemetinib; HCC-44, LUN, KRAS G12C; agent alone. The procedure:
as §1, §2

Data set [19] relates to CL-40 cells. The data set is described as follows: 3D-TGA. It counts as cell-based, human. The settings on record: read-out: IC50 in 3D-TGA Ifebemetinib; CL-40, COL, KRAS G12D; agent alone. The method, then: as §1, §2
Data set [20] concerns LU99 cells. Nature of the data set: 3D-TGA. The class given is cell-based, human. The settings on record: read-out: IC50 in 3D-TGA Ifebemetinib; LU99, LUN, KRAS G12C; agent alone. The method, then: as §1, §2
Data set [21] deals with HPAC cells. The data set is described as follows: 3D-TGA. The class given is cell-based, human. The settings on record: read-out: IC50 in 3D-TGA Ifebemetinib, PAN, KRAS G12D, agent alone. The procedure:
as §1, §2

Data set [22] deals with Panc 10.05 cells. The data set is described as follows: 3D-TGA. The class given is cell-based, human. The settings on record: read-out: IC50 in 3D-TGA Ifebemetinib; Panc 10.05, PAN, KRAS G12D; agent alone. The procedure: as §1, §2
For data set [23], the system named is NCI-H2030 cells. The data set is described as follows: 3D-TGA. The class given is cell-based, human. The settings on record: read-out: IC50 in 3D-TGA Ifebemetinib; NCI-H2030, LUN, KRAS G12C; agent alone. The method, then:
as §1, §2

For data set [24], the system named is AsPC-1 cells. Nature of the data set: 3D-TGA. It counts as cell-based, human. The settings on record: read-out: IC50 in 3D-TGA Ifebemetinib; AsPC-1, PAN, KRAS G12D; agent alone. The method, then:
as §1, §2

Data set [25] has as its system NCI-H2122 cells. The data set is described as follows: 3D-TGA. The settings on record: read-out: IC50 in 3D-TGA Ifebemetinib; NCI-H2122, LUN, KRAS G12C; agent alone. It counts as cell-based, human. The method, then: as §1, §2
For data set [26], the system named is PANC-1 cells. Nature of the data set: 3D-TGA. The class given is cell-based, human. The settings on record: read-out: IC50 in 3D-TGA Ifebemetinib; PANC-1, PAN, KRAS G12D; agent alone. The method, then:
as §1, §2

The subject of data set [27] is tumor models (cell lines). The data set is described as follows: Humanized 3D tumor growth assay (3D-TGA), tumor model panel / other cell lines. It counts as cell-based, human. The settings on record: read-out: IC50 in 3D-TGA Ifebemetinib, KRAS G12D, agent alone.
Description: The humanized 3D tumor growth assay (3D-TGA) is an extracellular matrix (ECM)-based, 3D tumor model that more faithfully mimics the human tumor microenvironment (TME) with the goal of improving translational fidelity to patients. See Casneuf T, et al., “Interleukin-6 is a potential therapeutic target in interleukin-6 dependent, estrogen receptor-α-positive breast cancer,” Breast Cancer (Dove Med Press). […] MEK inhibition in the 3D-TGA. […]
All cell lines were validated by IDEXX upon receipt and assay setup. See Appendix for full cell line list.
as §1, §2

In data set [28] the test system is ERK-induced transcription in Colon-26 tumors. The data set is described as follows: Colon-26 tumor RNA sequencing, ERK transcriptome. It counts as in vivo, BALB/c mice. The settings on record: 100 mg/kg BID PO, day 18, Colon-26.
Where [29] appears, read: Homo sapiens, read-out: IC50 in 3D-TGA, CDK-4-6 inhibitor alone.
Where [30] appears, read: Homo sapiens, MIA PaCa-2, PAN, KRAS G12C, read-out: IC50 in 3D-TGA, CDK-4-6 inhibitor alone.

Like-named read-outs stand apart in the source and are kept apart here.

The term IC50 denotes the concentration at which inhibition is half-maximal.

For the compound `CC(=O)c1c(C)c2cnc(Nc3ccc(N4CCNCC4)cn3)nc2n(C2CCCC2)c1=O` [Palbociclib, palbociclib], the IC50 in [1] is 1000 nM; in data set [2] (setting [29]) it was 500 to 1000 nM; in data set [3], 100 to 500 nM; in data set [4] it was 1000 nM; in data set [5] (setting [30]) it was 1000 nM.
Turning to `CCN1CCN(Cc2ccc(Nc3ncc(F)c(-c4cc(F)c5nc(C)n(C(C)C)c5c4)n3)nc2)CC1` [Abemaciclib, abemaciclib], the half-inhibitory concentration (IC50) in [1] was 1000 nM; in data set [2] (setting [29]) it was 100 to 500 nM; in data set [3] it was 100 to 500 nM; in [4], 1000 nM; in data set [5] (setting [30]) it was 1000 nM.
In the case of `C#Cc1cccc(Nc2ncnc3cc(OCCOC)c(OCCOC)cc23)c1` [Erlotinib, erlotinib], the IC50 in [6] (read-out: IC50 in 3D-TGA Erlotinib, NCI-H820, LUN, EGFR T790M, agent alone) turned out to be 1000 nM; in [7] (read-out: IC50 in 3D-TGA Erlotinib, SK-CO-1, COL, KRAS G12V, agent alone), 1000 nM; in data set [8] (Homo sapiens, read-out: IC50 in 3D-TGA Erlotinib, NCI-H358, LUN, KRAS G12C, agent alone), 1000 nM; in data set [9] (read-out: IC50 in 3D-TGA Erlotinib, NCI-H1650, LUN, EGFR E746_A750 del, agent alone), 1000 nM; in [10] (Homo sapiens, read-out: IC50 in 3D-TGA Erlotinib, NCI-H1792, LUN, KRAS G12C, agent alone), 1000 nM; in [11] (read-out: IC50 in 3D-TGA Erlotinib, NCI-H1975, LUN, EGFR L858R, agent alone), 1000 nM. Besides, the IC50 in data set [5] (Homo sapiens, read-out: IC50 in 3D-TGA Erlotinib, MIA PACA-2, PAN, KRAS G12C, agent alone) came to 1000 nM; in data set [12] (read-out: IC50 in 3D-TGA Erlotinib, NCI-H508, COL, BRAF G596R, agent alone), 1000 nM; in data set [13] (read-out: IC50 in 3D-TGA Erlotinib, NCI-H2172, LUN, EGFR L858R, agent alone), 1000 nM; in data set [14] (read-out: IC50 in 3D-TGA Erlotinib, LS411N, COL, BRAF V600E, agent alone) it was 1000 nM.
In the case of `CC(=O)Nc1cccc(-n2c(=O)n(C3CC3)c(=O)c3c(Nc4ccc(I)cc4F)n(C)c(=O)c(C)c32)c1` [trametinib], in data set [15], the half-lives per cycle was no more than 0.25.
Consider `Cn1cnc2c(F)c(Nc3ccc(Br)cc3F)c(C(=O)NOCCO)cc21` [binimetinib], for which the half-lives in [16] was 3.5 h.
Regarding ifebemetinib, the IC50 in data set [17], in data set [18], in data set [19], in data set [20], in data set [21] and in data set [22] was greater than 1000 nM each time. Also, the IC50 is greater than 1000 nM in data set [2] (read-out: IC50 in 3D-TGA Ifebemetinib, agent alone); 500 to 1000 nM in data set [23]; greater than 1000 nM in data set [24]; greater than 1000 nM in [25]; greater than 1000 nM in data set [26]; greater than 1000 nM in data set [8] (read-out: IC50 in 3D-TGA Ifebemetinib, NCI-H358, LUN, KRAS G12C, agent alone). In addition, the IC50 in [27] (COLO 678, COL) is greater than 1000 nM; in data set [27] (T3M-10, LUN), greater than 1000 nM; in data set [10] (read-out: IC50 in 3D-TGA Ifebemetinib, NCI-H1792, LUN, KRAS G12C, agent alone), greater than 1000 nM; in data set [5] (read-out: IC50 in 3D-TGA Ifebemetinib, MIA PaCa-2, PAN, KRAS G12C, agent alone), greater than 1000 nM.
With `CN(C)C/C=C/C(=O)Nc1cc2c(Nc3ccc(F)c(Cl)c3)ncnc2cc1O[C@H]1CCOC1` [Afatinib, afatinib], the IC50 in data set [6] (NCI-H820, read-out: IC50 in 3D-TGA Afatinib) is 1000 nM; in data set [7] (SK-CO-1, read-out: IC50 in 3D-TGA Afatinib) it was 1000 nM; in data set [8] (Homo sapiens, NCI-H358, read-out: IC50 in 3D-TGA Afatinib) it was 1000 nM; in [9] (NCI-H1650, read-out: IC50 in 3D-TGA Afatinib), 1000 nM; in data set [10] (Homo sapiens, NCI-H1792, read-out: IC50 in 3D-TGA Afatinib) it was 1000 nM; in data set [11] (NCI-H1975, read-out: IC50 in 3D-TGA Afatinib), 1000 nM. The concentration for half-maximal inhibition (IC50) in data set [5] (Homo sapiens, MIA PaCa-2, read-out: IC50 in 3D-TGA Afatinib) is 1000 nM; in [12] (NCI-H508, read-out: IC50 in 3D-TGA Afatinib) it was 500 to 1000 nM; in [13] (NCI-H2172, read-out: IC50 in 3D-TGA Afatinib) it was 1000 nM; in [14] (read-out: IC50 in 3D-TGA Afatinib), 1000 nM.
`O=C(c1ccc(F)c(F)c1Nc1ccc(I)cc1F)N1CC(O)([C@@H]2CCCCN2)C1` [cobimetinib]: the half-lives per cycle in data set [15] is no more than 0.55.
In the case of `Cn1cnc2c(F)c(Nc3ccc(Br)cc3Cl)c(C(=O)NOCCO)cc21` [selumetinib], the “ERK transcriptome, 2 h vs 12 h post-dose” value in [28] was “sustained MAPK pathway suppression”. Besides, the half-lives in data set [16] is 6.2 h.
